Earlier results on two compounds are cited in article PMC6985722 (Antimicrobial Agents and Chemotherapy, 2020).

One data set deals with RSV. On the set-up: method as in ref 21 = [21]; 21. Hanfelt-Goade D , Maimon N , Nimer A , Riviere F , Catherinot E , Ison M , Jeong SH , Walsh E , Gafter-Gvili A , Nama SR , Napora P , Chowers M , Bergeron A , Zeltser D , Moudgil H , Limaye AP , C. The note with it: hospitalized RSV-infected adults treated relatively late; cited from earlier work.
The conditions of data set [1]: cited from earlier work.

Consider `Cc1cn2nc([C@@H]3CCCCN3C(=O)c3cc(Cl)ccc3NS(C)(=O)=O)cc2nc1N1CC[C@H](N)C1` [GS-5806], for which the “Viral load and clinical outcomes” value in the data set on RSV is listed as “failed to significantly reduce the viral load or improve clinical outcomes”.
As for `CC(C)C(=O)OC[C@@]1(CCl)O[C@@H](n2ccc(N)nc2=O)[C@H](F)[C@@H]1OC(=O)C(C)C` [ALS-008176], the Terminal half-life in data set [1] is on record as 63 h.
